Assay results: ChEMBL document CHEMBL5653593 (Clin Sci (Lond), 2002)

Assays:
[1] = molecular target: T1, Endothelin receptor type B (Homo sapiens, UniProt P24530); assay: Binding affinity to human ETB receptor transfected in CHO cell membrane assessed as inhibition constant incubated for 3 hrs by 125I-labelled ET-1 saturation binding assay; type: cell membranes
T1 sequence (P24530 whole entry): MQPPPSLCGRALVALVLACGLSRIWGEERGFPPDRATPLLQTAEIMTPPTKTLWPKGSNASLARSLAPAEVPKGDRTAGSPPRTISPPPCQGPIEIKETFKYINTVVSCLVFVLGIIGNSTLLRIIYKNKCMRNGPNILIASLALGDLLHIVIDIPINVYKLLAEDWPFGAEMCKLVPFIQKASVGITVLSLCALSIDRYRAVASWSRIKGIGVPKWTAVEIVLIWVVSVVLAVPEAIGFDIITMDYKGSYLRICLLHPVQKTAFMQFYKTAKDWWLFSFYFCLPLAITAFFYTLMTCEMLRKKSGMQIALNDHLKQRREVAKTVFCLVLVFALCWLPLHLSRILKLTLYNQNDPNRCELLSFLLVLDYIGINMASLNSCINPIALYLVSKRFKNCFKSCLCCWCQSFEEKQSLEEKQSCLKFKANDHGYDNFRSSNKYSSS

[2] = molecular target: T1, Endothelin receptor type B; assay: Antagonist activity at human ETB receptor transfected in CHO cell membrane […]; type: functional, cell membranes
[3] = molecular target: T2, Endothelin-1 receptor (Homo sapiens, UniProt P25101); assay: Antagonist activity at human ETA receptor transfected in CHO cell membrane assessed as inhibition of 125I-labelled ET-1 binding to receptor incubated for 3 hrs by competition binding assay; type: functional, cell membranes
T2 sequence (P25101 whole entry): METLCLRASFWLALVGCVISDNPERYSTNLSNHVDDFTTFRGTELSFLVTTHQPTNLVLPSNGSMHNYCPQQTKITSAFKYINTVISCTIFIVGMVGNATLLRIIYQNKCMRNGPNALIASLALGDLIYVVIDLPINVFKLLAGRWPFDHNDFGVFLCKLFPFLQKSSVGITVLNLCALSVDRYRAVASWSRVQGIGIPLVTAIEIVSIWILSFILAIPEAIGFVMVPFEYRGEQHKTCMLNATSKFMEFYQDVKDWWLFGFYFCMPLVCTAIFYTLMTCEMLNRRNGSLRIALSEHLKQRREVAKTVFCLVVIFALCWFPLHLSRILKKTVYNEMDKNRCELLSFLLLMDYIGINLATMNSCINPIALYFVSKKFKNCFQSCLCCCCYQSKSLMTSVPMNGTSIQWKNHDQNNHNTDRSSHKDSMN

[4] = molecular target: T3, Endothelin-1 receptor (Rattus norvegicus, UniProt P26684); assay: Antagonist activity at ETA receptor in rat MMQ cells assessed as inhibition of phosphatidylinositol hydrolysis by myo-[3H]inositol radioactivity based assay; type: functional, cell-based
T3 sequence (P26684 whole entry): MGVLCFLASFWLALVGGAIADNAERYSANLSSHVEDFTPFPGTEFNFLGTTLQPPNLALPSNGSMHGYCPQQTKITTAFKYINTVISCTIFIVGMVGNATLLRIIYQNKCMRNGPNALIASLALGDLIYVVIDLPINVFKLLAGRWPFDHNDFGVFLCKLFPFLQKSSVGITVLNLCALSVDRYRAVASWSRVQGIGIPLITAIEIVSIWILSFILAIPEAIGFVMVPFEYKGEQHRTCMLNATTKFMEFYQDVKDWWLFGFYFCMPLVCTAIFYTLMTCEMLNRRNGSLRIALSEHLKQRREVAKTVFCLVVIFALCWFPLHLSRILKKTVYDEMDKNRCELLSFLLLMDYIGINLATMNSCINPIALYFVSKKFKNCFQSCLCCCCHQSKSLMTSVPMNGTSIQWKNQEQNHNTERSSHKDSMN

[5] = molecular target: T2, Endothelin-1 receptor; assay: Binding affinity to human ETA receptor transfected in CHO cell membrane assessed as inhibition constant incubated for 3 hrs by 125I-labelled ET-1 saturation binding assay; type: cell membranes

| Ki [1] | IC50 [2] | IC50 [3] | IC50 [4] | Ki [5] | Structure (SMILES) |
| --- | --- | --- | --- | --- | --- |
| 1.23 nM | 1.12 nM | – | – | – | CCCCCS(=O)(=O)N(CCC)CCN1C[C@H](c2ccc3c(c2)OCO3)[C@@H](C(=O)O)[C@@H]1c1ccc(OC)c(F)c1 |
| – | 0.59 nM | 4280 nM | ≥ 700 nM | 5600 nM | CCCOc1ccc([C@H]2[C@H](C(=O)O)[C@@H](c3ccc4c(c3)OCO4)CN2CC(=O)Nc2c(CC)cccc2CC)cc1 [A-192621] |
| – | – | – | 0.59 nM | – | CCCCN(CCCC)C(=O)CN1C[C@H](c2cc(OC)c3c(c2)OCO3)[C@@H](C(=O)O)[C@@H]1CC(C)(C)CCC [ABT-546] |
